Laboratory results as given in ChEMBL document CHEMBL5649169 (ChemMedChem, 2018).

What was measured:
[1] = biological target: Transmembrane protein 43 (Homo sapiens) (UniProt Q9BTV4)
[2] = biological target: Peroxisomal acyl-coenzyme A oxidase 1 (Homo sapiens) (UniProt Q15067)
[3] = biological target: Alpha-enolase (Homo sapiens) (UniProt P06733)
[4] = biological target: Mitogen-activated protein kinase kinase kinase 3 (Homo sapiens) (UniProt Q99759)
[5] = biological target: MAP kinase-activated protein kinase 2 (Homo sapiens) (UniProt P49137)
[6] = biological target: Importin subunit alpha-1 (Homo sapiens) (UniProt P52292)
[7] = biological target: Aspartate--tRNA ligase, cytoplasmic (Homo sapiens) (UniProt P14868)
[8] = biological target: Neuroblast differentiation-associated protein AHNAK (Homo sapiens) (UniProt Q09666)
[9] = biological target: ATP-binding cassette sub-family D member 3 (Homo sapiens) (UniProt P28288)
Sequence of ATP-binding cassette sub-family D member 3 (Homo sapiens) (P28288 whole entry, canonical isoform): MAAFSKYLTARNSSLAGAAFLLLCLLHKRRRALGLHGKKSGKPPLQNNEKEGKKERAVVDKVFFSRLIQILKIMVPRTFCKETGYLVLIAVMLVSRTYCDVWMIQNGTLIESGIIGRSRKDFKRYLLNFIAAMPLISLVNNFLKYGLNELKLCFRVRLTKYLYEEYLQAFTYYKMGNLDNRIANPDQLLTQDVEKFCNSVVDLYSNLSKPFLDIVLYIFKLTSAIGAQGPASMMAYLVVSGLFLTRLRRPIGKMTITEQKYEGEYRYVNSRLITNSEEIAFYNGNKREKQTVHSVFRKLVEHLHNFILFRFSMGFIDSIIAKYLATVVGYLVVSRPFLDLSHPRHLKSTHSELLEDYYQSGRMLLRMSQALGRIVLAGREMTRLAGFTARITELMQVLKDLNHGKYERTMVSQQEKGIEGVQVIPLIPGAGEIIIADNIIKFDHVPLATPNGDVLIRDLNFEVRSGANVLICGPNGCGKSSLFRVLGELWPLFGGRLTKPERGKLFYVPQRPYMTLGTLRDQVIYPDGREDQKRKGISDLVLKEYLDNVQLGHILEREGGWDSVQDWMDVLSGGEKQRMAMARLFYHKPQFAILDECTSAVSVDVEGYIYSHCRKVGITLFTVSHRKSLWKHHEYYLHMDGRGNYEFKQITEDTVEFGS

[10] = biological target: S-adenosylmethionine synthase isoform type-2 (Homo sapiens) (UniProt P31153)
Sequence of S-adenosylmethionine synthase isoform type-2 (Homo sapiens) (P31153 whole entry, looked up, canonical isoform): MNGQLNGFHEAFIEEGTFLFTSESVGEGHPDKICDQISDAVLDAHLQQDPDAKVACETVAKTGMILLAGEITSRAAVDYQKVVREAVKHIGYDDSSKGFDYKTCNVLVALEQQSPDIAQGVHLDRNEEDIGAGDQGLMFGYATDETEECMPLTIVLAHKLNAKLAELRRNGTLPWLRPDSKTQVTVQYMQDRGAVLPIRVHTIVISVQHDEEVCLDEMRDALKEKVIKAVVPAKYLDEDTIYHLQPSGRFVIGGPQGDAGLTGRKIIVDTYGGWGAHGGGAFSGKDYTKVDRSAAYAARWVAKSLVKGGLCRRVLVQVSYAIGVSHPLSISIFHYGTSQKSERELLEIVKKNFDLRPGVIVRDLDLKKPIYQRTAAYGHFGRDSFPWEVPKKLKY

[11] = biological target: SWI/SNF complex subunit SMARCC2 (Homo sapiens) (UniProt Q8TAQ2)
[12] = biological target: Mitogen-activated protein kinase 7 (Homo sapiens) (UniProt Q13164)
[13] = biological target: Small ribosomal subunit protein uS19 (Homo sapiens) (UniProt P62841)
[14] = biological target: Cold shock domain-containing protein E1 (Homo sapiens) (UniProt O75534)
[15] = biological target: Histone H1.0 (Homo sapiens) (UniProt P07305)
[16] = biological target: NADH dehydrogenase [ubiquinone] iron-sulfur protein 7, mitochondrial (Homo sapiens) (UniProt O75251)
[17] = biological target: V-type proton ATPase subunit H (Homo sapiens) (UniProt Q9UI12)
[18] = biological target: Small ribosomal subunit protein uS7 (Homo sapiens) (UniProt P46782)
[19] = biological target: G1/S-specific cyclin-E1 (Homo sapiens) (UniProt P24864)
[20] = biological target: GTP-binding protein 4 (Homo sapiens) (UniProt Q9BZE4)
[21] = biological target: Glucose-6-phosphate isomerase (Homo sapiens) (UniProt P06744)
[22] = species on record: Homo sapiens
[23] = biological target: Eukaryotic translation elongation factor 1 epsilon-1 (Homo sapiens) (UniProt O43324)
[24] = biological target: Stathmin-2 (Homo sapiens) (UniProt Q93045)
[25] = biological target: Hexokinase-1 (Homo sapiens) (UniProt P19367)
[26] = biological target: Bromodomain adjacent to zinc finger domain protein 1A (Homo sapiens) (UniProt Q9NRL2)
[27] = biological target: Proliferating cell nuclear antigen (Homo sapiens) (UniProt P12004)
[28] = biological target: Large ribosomal subunit protein uL15 (Homo sapiens) (UniProt P46776)
[29] = biological target: Catechol O-methyltransferase (Homo sapiens) (UniProt P21964)
[30] = biological target: Small ribosomal subunit protein uS14 (Homo sapiens) (UniProt P62273)
[31] = biological target: Peroxisomal multifunctional enzyme type 2 (Homo sapiens) (UniProt P51659)
Sequence of Peroxisomal multifunctional enzyme type 2 (Homo sapiens) (P51659 whole entry): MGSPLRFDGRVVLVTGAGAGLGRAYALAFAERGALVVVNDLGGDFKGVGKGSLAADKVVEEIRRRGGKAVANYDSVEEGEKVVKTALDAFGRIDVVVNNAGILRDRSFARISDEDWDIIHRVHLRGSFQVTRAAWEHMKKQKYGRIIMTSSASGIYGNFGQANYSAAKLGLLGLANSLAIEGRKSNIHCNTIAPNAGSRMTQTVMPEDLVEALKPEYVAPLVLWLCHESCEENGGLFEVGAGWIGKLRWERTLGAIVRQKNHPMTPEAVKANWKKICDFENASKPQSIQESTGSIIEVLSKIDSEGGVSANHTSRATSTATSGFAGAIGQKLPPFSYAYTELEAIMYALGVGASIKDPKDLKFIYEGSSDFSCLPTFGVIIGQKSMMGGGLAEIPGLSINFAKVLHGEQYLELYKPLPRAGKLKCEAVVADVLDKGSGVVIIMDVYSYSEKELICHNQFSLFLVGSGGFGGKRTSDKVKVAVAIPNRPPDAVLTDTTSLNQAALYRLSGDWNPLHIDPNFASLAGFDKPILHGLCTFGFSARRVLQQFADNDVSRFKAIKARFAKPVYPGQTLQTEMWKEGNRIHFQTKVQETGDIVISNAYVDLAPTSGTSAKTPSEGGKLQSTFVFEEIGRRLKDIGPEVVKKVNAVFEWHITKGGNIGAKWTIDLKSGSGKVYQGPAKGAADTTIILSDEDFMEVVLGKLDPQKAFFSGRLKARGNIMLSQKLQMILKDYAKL

[32] = biological target: ATP-dependent RNA helicase DDX3X (Homo sapiens) (UniProt O00571)
[33] = biological target: Atlastin-3 (Homo sapiens) (UniProt Q6DD88)
[34] = biological target: Equilibrative nucleobase transporter 1 (Homo sapiens) (UniProt Q8NBI5)
[35] = biological target: Serine/threonine-protein kinase NLK (Homo sapiens) (UniProt Q9UBE8)
[36] = biological target: Stress-induced-phosphoprotein 1 (Homo sapiens) (UniProt P31948)
[37] = biological target: Aldehyde dehydrogenase X, mitochondrial (Homo sapiens) (UniProt P30837)
Sequence of Aldehyde dehydrogenase X, mitochondrial (Homo sapiens) (P30837 whole entry): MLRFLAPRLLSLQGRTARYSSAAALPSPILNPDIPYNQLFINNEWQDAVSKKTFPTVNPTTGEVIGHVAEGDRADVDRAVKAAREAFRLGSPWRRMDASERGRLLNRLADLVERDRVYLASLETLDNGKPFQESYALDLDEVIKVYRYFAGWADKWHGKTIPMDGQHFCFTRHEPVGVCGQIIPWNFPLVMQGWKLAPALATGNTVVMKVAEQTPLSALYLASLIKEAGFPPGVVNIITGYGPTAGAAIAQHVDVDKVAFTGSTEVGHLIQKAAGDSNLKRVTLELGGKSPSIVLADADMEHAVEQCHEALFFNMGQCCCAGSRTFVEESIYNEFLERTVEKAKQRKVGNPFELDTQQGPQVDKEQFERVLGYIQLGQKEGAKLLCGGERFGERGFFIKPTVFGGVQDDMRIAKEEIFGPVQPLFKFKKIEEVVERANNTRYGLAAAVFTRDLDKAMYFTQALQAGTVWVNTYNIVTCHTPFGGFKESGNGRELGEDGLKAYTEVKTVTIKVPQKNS

[38] = biological target: X-ray repair cross-complementing protein 5 (Homo sapiens) (UniProt P13010)
[39] = biological target: Protein S100-A6 (Homo sapiens) (UniProt P06703)
[40] = biological target: U5 small nuclear ribonucleoprotein 200 kDa helicase (Homo sapiens) (UniProt O75643)
Sequence of U5 small nuclear ribonucleoprotein 200 kDa helicase (Homo sapiens) (O75643 whole entry): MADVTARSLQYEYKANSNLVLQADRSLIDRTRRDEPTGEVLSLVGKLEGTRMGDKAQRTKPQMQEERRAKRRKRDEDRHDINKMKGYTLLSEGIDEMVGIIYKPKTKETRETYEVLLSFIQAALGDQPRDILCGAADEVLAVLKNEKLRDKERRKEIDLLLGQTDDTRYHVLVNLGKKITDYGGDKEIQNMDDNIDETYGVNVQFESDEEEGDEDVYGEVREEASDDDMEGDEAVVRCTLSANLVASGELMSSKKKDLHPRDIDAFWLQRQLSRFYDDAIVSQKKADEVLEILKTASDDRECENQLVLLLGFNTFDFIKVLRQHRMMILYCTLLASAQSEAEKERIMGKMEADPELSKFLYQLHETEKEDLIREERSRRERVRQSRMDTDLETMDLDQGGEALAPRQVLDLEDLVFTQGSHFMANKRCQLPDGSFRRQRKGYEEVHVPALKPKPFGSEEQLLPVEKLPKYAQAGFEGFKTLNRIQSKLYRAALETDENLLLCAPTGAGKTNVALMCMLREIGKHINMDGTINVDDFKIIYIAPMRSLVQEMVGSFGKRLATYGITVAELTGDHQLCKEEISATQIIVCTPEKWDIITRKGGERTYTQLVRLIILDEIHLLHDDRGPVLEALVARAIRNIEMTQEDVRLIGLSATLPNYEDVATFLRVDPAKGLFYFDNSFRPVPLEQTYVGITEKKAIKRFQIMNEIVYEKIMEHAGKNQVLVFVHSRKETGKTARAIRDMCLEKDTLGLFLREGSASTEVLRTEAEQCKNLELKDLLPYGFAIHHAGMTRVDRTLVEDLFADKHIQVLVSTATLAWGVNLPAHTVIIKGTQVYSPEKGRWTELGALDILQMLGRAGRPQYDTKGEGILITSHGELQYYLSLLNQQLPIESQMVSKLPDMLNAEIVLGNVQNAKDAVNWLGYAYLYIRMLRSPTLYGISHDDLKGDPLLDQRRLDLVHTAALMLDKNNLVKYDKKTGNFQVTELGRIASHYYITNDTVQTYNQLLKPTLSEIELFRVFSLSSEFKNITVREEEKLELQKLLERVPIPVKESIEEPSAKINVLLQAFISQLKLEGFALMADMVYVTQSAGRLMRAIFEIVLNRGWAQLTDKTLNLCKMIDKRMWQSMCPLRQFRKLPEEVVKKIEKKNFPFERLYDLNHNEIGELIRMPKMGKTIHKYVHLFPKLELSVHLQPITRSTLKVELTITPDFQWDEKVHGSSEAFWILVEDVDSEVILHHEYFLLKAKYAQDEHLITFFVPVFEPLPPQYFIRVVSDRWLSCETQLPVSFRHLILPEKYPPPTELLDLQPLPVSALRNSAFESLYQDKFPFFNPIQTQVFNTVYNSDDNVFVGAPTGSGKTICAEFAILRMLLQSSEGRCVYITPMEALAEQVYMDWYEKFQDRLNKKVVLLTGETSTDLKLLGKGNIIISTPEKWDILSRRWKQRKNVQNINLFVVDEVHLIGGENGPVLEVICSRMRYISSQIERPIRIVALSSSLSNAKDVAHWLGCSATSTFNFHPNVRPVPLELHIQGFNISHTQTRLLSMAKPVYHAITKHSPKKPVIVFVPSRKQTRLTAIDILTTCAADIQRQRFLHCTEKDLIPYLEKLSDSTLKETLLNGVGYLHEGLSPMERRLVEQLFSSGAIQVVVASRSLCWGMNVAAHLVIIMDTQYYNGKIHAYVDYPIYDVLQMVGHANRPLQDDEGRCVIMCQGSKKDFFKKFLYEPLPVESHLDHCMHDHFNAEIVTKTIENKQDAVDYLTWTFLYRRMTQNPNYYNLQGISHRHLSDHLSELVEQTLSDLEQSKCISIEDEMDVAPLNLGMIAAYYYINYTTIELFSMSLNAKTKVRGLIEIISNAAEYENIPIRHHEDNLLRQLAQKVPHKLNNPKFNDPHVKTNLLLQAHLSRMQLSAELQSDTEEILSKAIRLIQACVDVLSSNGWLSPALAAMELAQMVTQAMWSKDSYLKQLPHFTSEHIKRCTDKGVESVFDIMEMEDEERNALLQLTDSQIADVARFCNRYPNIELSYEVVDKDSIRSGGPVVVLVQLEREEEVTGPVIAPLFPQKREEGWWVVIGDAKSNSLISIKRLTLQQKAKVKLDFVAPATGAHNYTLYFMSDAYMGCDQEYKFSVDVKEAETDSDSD

[41] = biological target: Serine/threonine-protein kinase STK11 (Homo sapiens) (UniProt Q15831)
[42] = biological target: Band 4.1-like protein 2 (Homo sapiens) (UniProt O43491)
[43] = biological target: Vimentin (Homo sapiens) (UniProt P08670)
[44] = biological target: Serine/threonine-protein kinase MRCK gamma (Homo sapiens) (UniProt Q6DT37)
[45] = biological target: Small ribosomal subunit protein eS8 (Homo sapiens) (UniProt P62241)
[46] = biological target: AarF domain-containing protein kinase 1 (Homo sapiens) (UniProt Q86TW2)
[47] = biological target: Protein LSM12 (Homo sapiens) (UniProt Q3MHD2)
Further: assay method not described here.

Sequence of Peroxisomal acyl-coenzyme A oxidase 1 (Homo sapiens) (Q15067 whole entry): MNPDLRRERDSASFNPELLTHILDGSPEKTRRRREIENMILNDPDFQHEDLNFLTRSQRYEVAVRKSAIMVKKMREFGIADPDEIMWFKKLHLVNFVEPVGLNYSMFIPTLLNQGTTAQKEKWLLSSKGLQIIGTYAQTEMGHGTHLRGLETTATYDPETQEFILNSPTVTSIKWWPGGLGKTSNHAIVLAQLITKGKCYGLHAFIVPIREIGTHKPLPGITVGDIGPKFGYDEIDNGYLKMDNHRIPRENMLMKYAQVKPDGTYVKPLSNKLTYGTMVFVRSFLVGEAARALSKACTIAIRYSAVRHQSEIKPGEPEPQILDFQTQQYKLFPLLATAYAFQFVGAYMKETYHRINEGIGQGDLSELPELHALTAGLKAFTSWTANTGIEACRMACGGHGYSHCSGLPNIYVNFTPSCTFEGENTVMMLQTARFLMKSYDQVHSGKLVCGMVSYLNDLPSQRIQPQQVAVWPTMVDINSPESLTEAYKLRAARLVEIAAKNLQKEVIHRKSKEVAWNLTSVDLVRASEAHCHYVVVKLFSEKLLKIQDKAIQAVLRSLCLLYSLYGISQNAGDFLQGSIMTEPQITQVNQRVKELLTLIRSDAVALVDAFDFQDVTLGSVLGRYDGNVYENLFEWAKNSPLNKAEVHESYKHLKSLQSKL

Cc1ccc(C(=O)Nc2cccc(C(F)(F)F)c2)cc1Nc1nc(-c2cccnc2)nc2nn(C)cc12
ED50 [1]: 10.6 µM | ED50 [2]: 2.69 µM | ED50 [3]: 0.053 µM | ED50 [4]: 0.0358 µM | ED50 [5]: 0.0517 µM | ED50 [6]: 0.00566 µM | ED50 [7]: 6.72 µM | ED50 [8]: 0.11 µM | ED50 [9]: 0.0289 µM | ED50 [10]: 0.0257 µM | ED50 [11]: 0.0058 µM | ED50 [12]: 5.74 µM | ED50 [13]: 0.0149 µM | ED50 [14]: 0.099 µM | ED50 [15]: 1.29 µM | ED50 [16]: 1.81 µM | ED50 [17]: 2.38 µM | ED50 [18]: 0.0501 µM | ED50 [19]: 0.0206 µM | ED50 [20]: 0.593 µM | ED50 [21]: 36500 µM | ED50 [22]: 0.716 µM | ED50 [23]: 0.502 µM | ED50 [24]: 10.5 µM | ED50 [25]: 173 µM | ED50 [26]: 0.0186 µM | ED50 [27]: 0.502 µM | ED50 [28]: 16.7 µM | ED50 [29]: 0.169 µM | ED50 [30]: 0.00933 µM | ED50 [31]: 0.85 µM | ED50 [32]: 0.00683 µM | ED50 [33]: 0.126 µM | ED50 [34]: 33.9 µM | ED50 [35]: 0.0242 µM | ED50 [36]: 0.0577 µM | ED50 [37]: 0.0072 µM | ED50 [38]: 10.3 µM | ED50 [39]: 11.5 µM | ED50 [40]: 0.539 µM | ED50 [41]: 0.018 µM | ED50 [42]: 0.338 µM | ED50 [43]: 1.62 µM | ED50 [44]: 0.0947 µM | ED50 [45]: 9.51 µM | ED50 [46]: 0.0933 µM | ED50 [47]: 5.58 µM

Cc1ccc(C(=O)Nc2cccc(C(F)(F)F)c2)cc1Nc1nc(-c2cccnc2)nc2c1cnn2C
ED50 [1]: 0.00615 µM | ED50 [2]: 15.2 µM | ED50 [3]: 4.37 µM | ED50 [4]: 12.1 µM | ED50 [5]: 0.549 µM | ED50 [6]: 7.33 µM | ED50 [7]: 0.0564 µM | ED50 [8]: 4.79 µM | ED50 [9]: 2.02 µM | ED50 [10]: 11.2 µM | ED50 [11]: 21.8 µM | ED50 [12]: 4.09 µM | ED50 [13]: 4.04 µM | ED50 [14]: 72.6 µM | ED50 [15]: 0.753 µM | ED50 [16]: 0.00309 µM | ED50 [17]: 0.00175 µM | ED50 [18]: 0.176 µM | ED50 [19]: 0.103 µM | ED50 [20]: 2.95 µM | ED50 [21]: 4.55 µM | ED50 [22]: 2.31 µM | ED50 [23]: 0.168 µM | ED50 [24]: 0.00439 µM | ED50 [25]: 0.00555 µM | ED50 [26]: 0.532 µM | ED50 [27]: 3.51 µM | ED50 [28]: 5.95 µM | ED50 [29]: 21.6 µM | ED50 [30]: 0.108 µM | ED50 [31]: 1.36 µM | ED50 [32]: 3.01 µM | ED50 [33]: 1.15 µM | ED50 [34]: 12.9 µM | ED50 [35]: 0.00185 µM | ED50 [36]: 3.83 µM | ED50 [37]: 0.00943 µM | ED50 [38]: 0.0264 µM | ED50 [39]: 0.118 µM | ED50 [40]: 6.15 µM | ED50 [41]: 2.39 µM | ED50 [42]: 0.00541 µM | ED50 [43]: 1.03 µM | ED50 [44]: 17.5 µM | ED50 [45]: 1.62 µM | ED50 [46]: 3.78 µM | ED50 [47]: 0.00519 µM
